In ChEMBL document CHEMBL6092183, “Rapid Affinity and Microsomal Stability Ranking of Crude Mixture Libraries of Histone Deacetylase Inhibitors” (ACS Med Chem Lett, 2024) one finds IC50, microsomal CLint and Stability data, which are given here for 25 compounds.

SMILES strings stand for the structures. Several values for one entry are separate records, joined by “and”; a condition that tells them apart may be missing. Equal entries are not always repeated.

One series deals with Histone deacetylase 2 (Homo sapiens, UniProt Q92769). As to the kind of experiment: Inhibition of HDAC2 (unknown origin) incubated for 30 mins by ALIS assay.
Histone deacetylase 2, sequence (Q92769 whole entry): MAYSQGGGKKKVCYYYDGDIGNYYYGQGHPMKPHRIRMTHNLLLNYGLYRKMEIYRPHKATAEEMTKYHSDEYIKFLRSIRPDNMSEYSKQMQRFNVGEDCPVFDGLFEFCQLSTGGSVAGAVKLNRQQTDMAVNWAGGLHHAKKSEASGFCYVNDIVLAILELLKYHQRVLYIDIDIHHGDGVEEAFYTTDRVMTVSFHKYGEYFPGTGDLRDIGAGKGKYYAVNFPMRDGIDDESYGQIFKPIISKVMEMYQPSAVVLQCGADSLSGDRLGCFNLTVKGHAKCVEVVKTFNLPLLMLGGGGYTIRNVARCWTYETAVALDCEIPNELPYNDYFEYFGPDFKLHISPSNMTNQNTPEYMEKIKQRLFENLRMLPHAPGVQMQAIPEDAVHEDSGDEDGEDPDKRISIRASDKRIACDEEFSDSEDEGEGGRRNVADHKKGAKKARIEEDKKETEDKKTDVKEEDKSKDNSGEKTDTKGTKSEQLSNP
A further series is described as follows: in vitro. The conditions noted are these: rat, microsomes.
The conditions of series [1]: human, microsomes.
Description: Metabolic stability in human liver microsomes

A word on the IC50: it is the concentration at which inhibition is half-maximal. As a reminder, the microsomal CLint is the capacity of the preparation to metabolise the compound, expressed as a volume cleared per time.

Turning to `CCC(=O)CCCCC[C@H](NC(=O)CC1CN2CCC1CC2)c1ncc(-c2ccccc2)[nH]1` (some centres not stated), the IC50 on Histone deacetylase 2 came out at 211 nM. Moreover, the intrinsic metabolic clearance (microsomal CLint) at 0.75 h, 0.3 µM in the series “in vitro” worked out at 91.8 µL/min/mg.
For `O=C(NCCCC[C@H](NC(=O)C1CCCCC12CC2)c1ncc(-c2ccc3ccccc3c2)[nH]1)c1c(O)cccc1F` (some centres not stated), in “in vitro”, the microsomal CLint at 0.75 h, 0.3 µM amounted to 805 µL/min/mg.
`CCCC[C@H](NC(=O)[C@H](CN)c1c[nH]c2ccc(OC)cc12)c1nc(-c2cccc(C)c2)c[nH]1` gave an intrinsic clearance (microsomal CLint) at 0.75 h, 0.3 µM in “in vitro” of 195 µL/min/mg.
For the compound `O=C(NCCCC[C@H](NC(=O)C1CN2CCC1CC2)c1ncc(-c2ccc3ccccc3c2)[nH]1)c1c(O)cccc1F` (some centres not stated), inhibition against Histone deacetylase 2 was half-maximal at 19.1 nM (IC50). The compound further came in with a microsomal CLint at 0.75 h, 0.3 µM in “in vitro” of 1240 µL/min/mg.
Regarding `CS(=O)(=O)N1CC2(CC2C(=O)N[C@@H](CCCCNC(=O)c2c(O)cccc2F)c2ncc(-c3ccc4ccccc4c3)[nH]2)C1` (some centres not stated), the 50% inhibitory concentration (IC50) against Histone deacetylase 2 is 48 nM and 12 nM. Further, the microsomal CLint at 0.75 h, 0.3 µM in “in vitro” was 693 µL/min/mg.
Consider `O=C(NCCCC[C@H](NC(=O)C1CC12CCCC2)c1ncc(-c2ccc3ccccc3c2)[nH]1)c1c(O)cccc1F` (some centres not stated), for which the half-maximal inhibitory concentration (IC50) on Histone deacetylase 2 was 441 nM and 144 nM. The microsomal CLint at 0.75 h, 0.3 µM in the series “in vitro” was 811 µL/min/mg.
Take `CCC(=O)CCCCC[C@H](NC(=O)C1C2COCC21)c1ncc(-c2ccccc2)[nH]1` (some centres not stated): the IC50 on Histone deacetylase 2 worked out at 295 nM. The Stability entry in series [1] is on record as “Stable”. Moreover, the intrinsic clearance (microsomal CLint) at 0.75 h, 0.3 µM in the series “in vitro” was found to be 75.7 µL/min/mg.
For the compound `CCCC[C@H](NC(=O)[C@H](CN)c1c[nH]c2ccc(OC)cc12)c1nc(-c2ccc(-c3ccn(C)n3)cc2)c[nH]1`, in the series “in vitro”, the intrinsic metabolic clearance (microsomal CLint) at 0.75 h, 0.3 µM turned out to be 83.4 µL/min/mg.
`CCC(=O)CCCCC[C@H](NC(=O)C1CC2CCN1CC2)c1ncc(-c2ccccc2)[nH]1` (some centres not stated): at Histone deacetylase 2, the concentration for half-maximal inhibition (IC50) was determined as 96.8 nM. The compound also displayed an intrinsic clearance (microsomal CLint) at 0.75 h, 0.3 µM in “in vitro” of 144 µL/min/mg.
For `CCC(=O)CCCCC[C@H](NC(=O)C1CC12CCCC2)c1ncc(-c2ccccc2)[nH]1` (some centres not stated), in the series “in vitro”, the microsomal CLint at 0.75 h, 0.3 µM amounted to 3510 µL/min/mg.
In turn, `CCCC[C@H](NC(=O)[C@H](CN)c1c[nH]c2ccc(OC)cc12)c1nc(-c2ccn(C)c(=O)c2)c[nH]1` yielded an IC50 against Histone deacetylase 2 of 428 nM. The compound also had a microsomal CLint at 0.75 h, 0.3 µM in “in vitro” of 9.9 µL/min/mg.
As to `CCCC[C@H](NC(=O)[C@H](CN)c1c[nH]c2ccc(OC)cc12)c1nc(-c2ccc3c(C)noc3c2)c[nH]1`, in “in vitro”, the microsomal CLint at 0.75 h, 0.3 µM stood at 192 µL/min/mg.
Turning to `CCCC[C@H](NC(=O)[C@H](CN)c1c[nH]c2ccc(OC)cc12)c1nc(-c2ccc(OC)cc2)c[nH]1`, the Stability result in series [1] was “Stable”. The microsomal CLint at 0.75 h, 0.3 µM in “in vitro” turned out to be 164 µL/min/mg.
`O=C(NCCCC[C@H](NC(=O)C1CC12CCNCC2)c1ncc(-c2ccc3ccccc3c2)[nH]1)c1c(O)cccc1F` (some centres not stated) returned an intrinsic clearance (microsomal CLint) at 0.75 h, 0.3 µM in “in vitro” of 70.1 µL/min/mg.
For the compound `O=C(NCCCC[C@H](NC(=O)C1C2CCNC21)c1ncc(-c2ccc3ccccc3c2)[nH]1)c1c(O)cccc1F` (some centres not stated), in the series “in vitro”, the microsomal CLint at 0.75 h, 0.3 µM came out at 754 µL/min/mg.
On to `CCCC[C@H](NC(=O)[C@H](CN)c1c[nH]c2ccc(OC)cc12)c1nc(-c2ccc(C3CC(C)(C)C3)cc2)c[nH]1`, for which the microsomal CLint at 0.75 h, 0.3 µM in “in vitro” stood at 110 µL/min/mg.
`CCCC[C@H](NC(=O)[C@H](CN)c1c[nH]c2ccc(OC)cc12)c1nc(-c2cc(C)cc(C)c2)c[nH]1`: the intrinsic metabolic clearance (microsomal CLint) at 0.75 h, 0.3 µM in “in vitro” was found to be 51 µL/min/mg.
On to `CCCC[C@H](NC(=O)[C@H](CN)c1c[nH]c2ccc(OC)cc12)c1nc(-c2ccc(C#N)cc2)c[nH]1`, for which the Stability entry in series [1] was “Stable”. For the same compound, the microsomal CLint at 0.75 h, 0.3 µM in “in vitro” was 68.9 µL/min/mg.
`O=C(NCCCC[C@H](NC(=O)C1C2CNCC21)c1ncc(-c2ccc3ccccc3c2)[nH]1)c1c(O)cccc1F` (some centres not stated): the IC50 at Histone deacetylase 2 came to 37 nM. Moreover, in “in vitro”, the intrinsic metabolic clearance (microsomal CLint) at 0.75 h, 0.3 µM was 57.5 µL/min/mg.
Consider `CCC(=O)CCCCC[C@H](NC(=O)C1CC12CN(C(C)=O)C2)c1ncc(-c2ccccc2)[nH]1` (some centres not stated), for which half-maximal inhibition at Histone deacetylase 2 (IC50) was put at 423 nM. In the series “in vitro”, the microsomal CLint at 0.75 h, 0.3 µM is 66.8 µL/min/mg.
Take `O=C(NCCCC[C@H](NC(=O)C1CC12CCCCC2)c1ncc(-c2ccc3ccccc3c2)[nH]1)c1c(O)cccc1F` (some centres not stated): at Histone deacetylase 2, the IC50 was found to be 432 nM. This compound also returned a microsomal CLint at 0.75 h, 0.3 µM in “in vitro” of 984 µL/min/mg.
For `CC(=O)N1CC2(CC2C(=O)N[C@@H](CCCCNC(=O)c2c(O)cccc2F)c2ncc(-c3ccc4ccccc4c3)[nH]2)C1` (some centres not stated) the same measures were 64.5 nM and 310 µL/min/mg.
At Histone deacetylase 2, `CCC(=O)CCCCC[C@H](NC(=O)C1CN2CCC1CC2)c1ncc(-c2ccccc2)[nH]1` (some centres not stated) returned an IC50 of 146 nM. Moreover, the microsomal CLint at 0.75 h, 0.3 µM in “in vitro” was 134 µL/min/mg.
Regarding `O=C(NCCCC[C@H](NC(=O)C1C2COCC21)c1ncc(-c2ccc3ccccc3c2)[nH]1)c1c(O)cccc1F` (some centres not stated), the 50% inhibitory concentration (IC50) against Histone deacetylase 2 was 45.4 nM and 89.8 nM. Besides, the microsomal CLint at 0.75 h, 0.3 µM in the series “in vitro” is 1150 µL/min/mg.
On Histone deacetylase 2, `CCC(=O)CCCCC[C@H](NC(=O)C1C2CNCC21)c1ncc(-c2ccccc2)[nH]1` (some centres not stated) displayed a concentration for half-maximal inhibition (IC50) of 112 nM. This compound had an intrinsic clearance (microsomal CLint) at 0.75 h, 0.3 µM in the series “in vitro” of 11.8 µL/min/mg.
